Measurements as given in PubChem BioAssay AID488878 (Sanford-Burnham Center for Chemical Genomics, 2010).
Calls of active or inactive are those of the source. The rule behind the calls is not given here.

Biological target: Alkaline phosphatase, placental type (Homo sapiens) (UniProt P05187)
Assay: PLAP enzyme activators, dose response, mouse IAP activator project, biochemical, uHTS hits (AID 488878)
Details: purified human PLAP enzyme activity

SMILES	EC50
O=C1/C(=C/C=C/c2ccco2)SC(=S)N1NS(=O)(=O)c1ccccc1	> 100 µM (inactive)
COc1cccc(C(C)NC(=O)Nc2cccc(C(F)(F)F)c2)c1 (stereo unspecified)	> 100 µM (inactive)
O=c1oc2cc(O)ccc2s1	12 µM
NNC(=O)c1cc(O)c(O)c(O)c1	69.3 µM
Oc1cc(O)c2c(c1)O[C@H](c1ccc(O)c(O)c1)[C@H](O)C2	51.3 µM
Cc1cc(=O)[nH]c(N/N=C/c2ccc(O)c(O)c2)n1	65.7 µM
O=C(CCO)c1ccc(O)cc1	18.9 µM
O=C1/C(=C/C=C/c2ccco2)SC(=S)N1c1ccc(O)cc1	61.8 µM
CC(C)c1ccc(NC(=O)NC2CCN(CC(=O)Nc3cccc4ccccc34)CC2)cc1	55.9 µM
CCn1c(CSc2nc3ccccc3s2)nnc1SCC(=O)c1ccc(O)c(O)c1	31.7 µM
O=C(O)Cc1ccc(O)c(O)c1	> 100 µM (inactive)
N#C/C(=C\c1coc2ccc(O)cc2c1=O)C(=O)Nc1nc2ccccc2s1	91.1 µM
CCOc1cc(/C=C2\CCC/C(=C\c3cc(Cl)c(O)c(OCC)c3)C2=O)cc(Cl)c1O	> 100 µM (inactive)
COc1ccc(N=C2SC(C(N)=O)CC(=O)N2CCc2ccc(OC)c(OC)c2)cc1 (stereo unspecified)	26.1 µM
Cc1ccc(CN2C3CCCC2CC(NC(=S)NCc2ccccc2)C3)cc1 (stereo unspecified)	> 100 µM (inactive)
O=S(=O)(c1cc(O)ccc1O)c1cccc2c(S(=O)(=O)c3cc(O)ccc3O)cccc12	24.3 µM
Oc1ccc(C[C@H]2NCCc3cc(O)c(O)cc32)cc1O	> 100 µM (inactive)
COc1ccccc1CNC(=O)CCNS(=O)(=O)c1ccc2[nH]c(=O)oc2c1	49 µM
O=c1cc(-c2ccc(O)cc2)oc2c(O)c(O)c(O)c(O)c12	59.6 µM
Oc1ccc(/C=N/N=C/c2ccc(O)c(O)c2)cc1O	68 µM
Oc1ccc(/C=N/Nc2cc(N3CCCC3)nc(N3CCCC3)n2)cc1O	> 100 µM (inactive)
N#C/C(=C\c1ccc(O)c(O)c1)C(=O)c1ccc(O)c(O)c1	8.03 µM
Cc1cc(O)c2c(c1O)C(=O)[C@]13C(=C2O)C(=O)[C@@H]2[C@@H](O)[C@H]1[C@@H]1[C@H](O)[C@H]3C(=O)C3=C(O)c4c(O)cc(C)c(O)c4C(=O)[C@]312	66.3 µM

SMILES	EC50
O=C(CCN1C(=O)/C(=C/c2ccco2)SC1=S)Nc1ccc(C(=O)O)c(O)c1	27.6 µM
O=C(NN1C(=O)/C(=C/C=C/c2ccco2)SC1=S)c1ccncc1	> 100 µM (inactive)
CN(CCO)c1ccc(C=NNc2ccc([N+](=O)[O-])cc2S(=O)(=O)Nc2ccccc2C(=O)O)cc1	26 µM
Nc1cc2nc3ccccc3oc-2cc1=O	57.2 µM
O=C1NC(=S)NC(=O)C1=Cc1ccc2c(c1)CCN2CCCCl	57.5 µM
O=C1NC(=S)NC(=O)C1=Cc1ccc(Br)s1	59.6 µM
O=C(CN1CCN(c2ccccc2F)CC1)c1ccc(O)c(O)c1	> 100 µM (inactive)
CCN1/C(=C/c2ccc3cc(C)ccc3[n+]2CC)Sc2ccc3sccc3c21	65.3 µM
Cc1ccc(NC(=O)CCNS(=O)(=O)c2ccc3[nH]c(=O)oc3c2)c(Cl)c1	26.3 µM
CN(C)c1ccc(N=Nc2nc3ccccc3n2C)cc1	48.3 µM
NS(=O)(=O)c1ccc(NC(=S)NC(=O)/C=C/c2ccco2)cc1	> 100 µM (inactive)
Cc1ccc(/C=C2/SC(=O)NC2=S)o1	55.9 µM
COc1ccc(OC)c(S(=O)(=O)Nc2ccc(O)c(Sc3ncn[nH]3)c2)c1	57.5 µM
O=C(O)CC(CCc1ccccc1)OC1OC(CO)C(O)C(O)C1O (stereo unspecified)	73 µM
O=C(CN1C(=O)/C(=C/c2ccco2)SC1=S)Nc1ccc(C(=O)O)c(O)c1	> 100 µM (inactive)
C[N+](C)(C)C(Cc1ccccc1)C(=O)[O-] (stereo unspecified)	59.7 µM
O=C(N/N=C/c1ccc([N+](=O)[O-])o1)c1sc2ccccc2c1Cl	> 100 µM (inactive)
S=C(NCc1ccccc1)NC1CCSc2ccccc21 (stereo unspecified)	> 100 µM (inactive)
Cc1ccc(NS(=O)(=O)c2ccc3[nH]c(=O)oc3c2)c(C)c1	89 µM
Oc1ccc(-c2csc(Nc3ccccn3)n2)cc1O	45.8 µM
O=C(NNC(=S)NC(=O)c1cccs1)c1ccc(O)cc1	36.8 µM
CSC1=NSC2=NC(=O)/C(=C/c3coc4ccc(O)cc4c3=O)C(=N)N12	27.2 µM
Oc1cc2c(cc1O)C1c3ccc(O)c(O)c3OCC1(O)C2 (stereo unspecified)	60.4 µM
